In US9512120B2, “Microbicidally active imidazopyridine derivatives” (Syngenta Participations AG, priority 2013, dated 2016):

Experiments:
[1] = test system: Glomerella lagenarium (Colletotrichum lagenarium); assay: Glomerella lagenarium (Colletotrichum lagenarium) / liquid culture (anthracnose); type: cell-based; details: Colletotrichum orbiculare, PDB, 24° C., 3-4 days after application, read-out: control of Glomerella lagenarium (inhibition of growth, photometric)
Method: Glomerella lagenarium (Colletotrichum lagenarium)/Liquid Culture (Anthracnose): Conidia of the fungus from cryogenic storage were directly mixed into nutrient broth (PDB potato dextrose broth). After placing a DMSO solution of test compound into a 96-well microtiter plate at an application rate of 200 ppm, the nutrient broth containing the fungal spores was added. The test plates were incubated at 24° C. and the inhibition of growth is measured photometrically 3-4 days after application.

[2] = test system: Pyrenophora teres; assay: Pyrenophora teres / barley / leaf disc preventative (net blotch); type: in vivo; details: foliar, barley leaf segments cv Hasso, inoculated two days after application, assessed 5-7 days after application, read-out: control of Pyrenophora teres (disease control compared to untreated)
Method: Pyrenophora Teres/Barley/Leaf Disc Preventative (Net Blotch): Barley leaf segments cv Hasso are placed on agar in a 24-well plate and sprayed with formulated test compound diluted in water at an application rate of 200 ppm. The leaf segments are inoculated with a spore suspension of the fungus two days after application of the test solution. The inoculated leaf segments are incubated at 20° C. and 65% relative humidity under a light regime of 12/12 h (light/dark) in a climate cabinet and the activity of a compound is assessed as disease control compared to untreated when an appropriate level of disease damage appears in untreated check leaf segments (5-7 days after application).

[3] = test system: Thanatephorus cucumeris (Rhizoctonia solani); assay: Thanatephorus cucumeris (Rhizoctonia solani) / liquid culture (foot rot, damping-off); type: cell-based; details: PDB, 24° C., 3-4 days after application, read-out: control of Thanatephorus cucumeris (inhibition of growth, photometric)
Method: Thanatephorus cucumeris (Rhizoctonia solani)/Liquid Culture (Foot Rot, Damping-Off): Mycelia fragments of a newly grown liquid culture of the fungus are directly mixed into nutrient broth (PDB potato dextrose broth). After placing a DMSO solution of the test compounds into a 96-well microtiter plate at an application rate of 200 ppm, the nutrient broth containing the fungal material was added. The test plates were incubated at 24° C. and the inhibition of growth was determined photometrically 3-4 days after application.

[4] = test system: Botryotinia fuckeliana (Botrytis cinerea); assay: Botryotinia fuckeliana (Botrytis cinerea) / liquid culture (gray mould); type: cell-based; details: Vogels broth, 24° C., 3-4 days after application, read-out: control of Botryotinia fuckeliana (inhibition of growth, photometric)
Method: Botryotinia Fuckeliana (Botrytis cinerea)/Liquid Culture (Gray Mould): Conidia of the fungus from cryogenic storage were directly mixed into nutrient broth (Vogels broth). After placing a DMSO solution of test compound into a 96-well microtiter plate at an application rate of 200 ppm, the nutrient broth containing the fungal spores was added. The test plates were incubated at 24° C. and the inhibition of growth was determined photometrically 3-4 days after application.

[5] = test system: Puccinia recondita f. sp. Tritici; assay: Puccinia recondita f. sp. tritici / wheat / leaf disc preventative (brown rust); type: in vivo; details: foliar, wheat leaf segments cv Kanzler, inoculated 1 day after application, assessed 7-9 days after application, read-out: control of Puccinia recondita f. sp. Tritici (percent disease control compared to untreated)
Method: Puccinia recondita f. Sp. Tritici/Wheat/Leaf Disc Preventative (Brown Rust): Wheat leaf segments cultivated variety (cv) Kanzler were placed on agar in 24-well plates and sprayed with formulated test compound diluted in water at an application rate of 200 ppm. The leaf disks were inoculated with a spore suspension of the fungus 1 day after application. The inoculated leaf segments were incubated at 19° C. and 75% relative humidity under a light regime of 12/12 h (light/dark) in a climate cabinet and the activity of a compound was assessed as percent disease control compared to untreated when an appropriate level of disease damage appears in untreated check leaf segments (7-9 days after application).

[6] = test system: Sclerotinia sclerotiorum; assay: Sclerotinia sclerotiorum liquid culture (cottony rot / white mold); type: cell-based; details: PDB, 24° C., 3-4 days after application, read-out: control of Sclerotinia sclerotiorum (inhibition of growth, photometric)
Method: Sclerotinia sclerotiorum (Cottony Rot/White Mold): Mycelia fragments of a newly grown liquid culture of the fungus were directly mixed into nutrient broth (PDB potato dextrose broth). After placing a (DMSO) solution of test compound into a microtiter plate (96-well format) the nutrient broth containing the fungal material was added. The test plates are incubated at 24° C. and the inhibition of growth was determined photometrically 3-4 days after application.

[7] = test system: Mycosphaerella graminicola (Septoria tritici); assay: Mycosphaerella graminicola (Septoria tritici) / liquid culture (Septoria blotch); type: cell-based; details: Zymoseptoria tritici, PDB, 24° C., 4-5 days after application, read-out: control of Mycosphaerella graminicola (inhibition of growth, photometric)
Method: Mycosphaerella graminicola (Septoria tritici)/Liquid Culture (Septoria Blotch): Conidia of the fungus from cryogenic storage were directly mixed into nutrient broth (PDB potato dextrose broth). After placing a DMSO solution of test compound into a 96-well microtiter plate at an application rate of 200 ppm, the nutrient broth containing the fungal spores was added. The test plates were incubated at 24° C. and the inhibition of growth was determined photometrically 4-5 days after application.

[8] = test system: Phaeosphaeria nodorum (Septoria nodorum); assay: Phaeosphaeria nodorum (Septoria nodorum) / wheat / leaf disc preventative (glume blotch); type: in vivo; details: Parastagonospora nodorum, foliar, wheat leaf segments cv Kanzler, inoculated 2 days after application, assessed 5-7 days after application, read-out: control of Phaeosphaeria nodorum (percent disease control compared to untreated)
Method: Phaeosphaeria nodorum (Septoria nodorum)/Wheat/Leaf Disc Preventative (Glume Blotch): Wheat leaf segments cv Kanzler were placed on agar in a 24-well plate and sprayed with formulated test compound diluted in water at an application rate of 200 ppm. The leaf disks are inoculated with a spore suspension of the fungus 2 days after application. The inoculated test leaf disks are incubated at 20° C. and 75% relative humidity under a light regime of 12/12 h (light/dark) in a climate cabinet and the activity of a compound is assessed as percent disease control compared to untreated when an appropriate level of disease damage appears in untreated check leaf disks (5-7 days after application).

[9] = test system: Monographella nivalis (Microdochium nivale); assay: Monographella nivalis (Microdochium nivale) / liquid culture (foot rot cereals); type: cell-based; details: PDB, 24° C., 4-5 days after application, read-out: control of Monographella nivalis (inhibition of growth, photometric)
Method: Monographella nivalis (Microdochium nivale)/Liquid Culture (Foot Rot Cereals): Conidia of the fungus from cryogenic storage were directly mixed into nutrient broth (PDB potato dextrose broth). After placing a DMSO solution of test compound into a 96-well microtiter plate at an application rate of 200 ppm, the nutrient broth containing the fungal spores was added. The test plates were incubated at 24° C. and the inhibition of growth was determined photometrically 4-5 days after application.

[10] = test system: Gaeumannomyces graminis; assay: Gaeumannomyces graminis / liquid culture (take-all of cereals); type: cell-based; details: PDB, 24° C., 4-5 days after application, read-out: control of Gaeumannomyces graminis (inhibition of growth, photometric)
Method: Gaeumannomyces graminis/Liquid Culture (Take-all of Cereals): Mycelial fragments of the fungus from cryogenic storage were directly mixed into nutrient broth (PDB potato dextrose broth). After placing a DMSO solution of test compound into a 96-well microtiter plate at an application rate of 200 ppm, the nutrient broth […], containing the fungal spores is added. The test plates were incubated at 24° C. and the inhibition of growth was determined photometrically 4-5 days after application.

CCn1c(-n2ncnc2N)nc2cncc(-c3ccc(Cl)cc3)c21 [Compound 35, 2-[7-(4-chlorophenyl)-1-ethylimidazo[4,5-c]pyridin-2-yl]-1,2,4-triazol-3-amine]
≥ 80%: inhibition at 20 ppm [1] | pest or weed control at 200 ppm [2] | inhibition at 20 ppm [3] | inhibition at 20 ppm [4] | pest or weed control at 200 ppm [5] | inhibition at 20 ppm [6] | inhibition at 20 ppm [7]

CCn1c(-n2ncnc2N)nc2cncc(-c3cc(F)cc(F)c3)c21 [Compound 37, 2-[7-(3,5-difluorophenyl)-1-ethylimidazo[4,5-c]pyridin-2-yl]-1,2,4-triazol-3-amine]
≥ 80%: inhibition at 20 ppm [1] | pest or weed control at 200 ppm [8] | pest or weed control at 200 ppm [2] | inhibition at 20 ppm [3] | inhibition at 20 ppm [4] | inhibition at 20 ppm [7]

CCn1c(-n2ncnc2N)nc2cncc(-c3ccc(C)c(F)c3)c21 [Compound 41, 2-[1-ethyl-7-(3-fluoro-4-methylphenyl)imidazo[4,5-c]pyridin-2-yl]-1,2,4-triazol-3-amine]
≥ 80%: pest or weed control at 200 ppm [2] | inhibition at 20 ppm [3] | inhibition at 20 ppm [4] | pest or weed control at 200 ppm [5] | inhibition at 20 ppm [6] | inhibition at 20 ppm [7]

CCn1c(-n2ncnc2N)nc2cncc(-c3ccc(OC)cc3OC)c21 [Compound 81, 2-[7-(2,4-dimethoxyphenyl)-1-ethylimidazo[4,5-c]pyridin-2-yl]-1,2,4-triazol-3-amine]
≥ 80%: inhibition at 20 ppm [9] | pest or weed control at 200 ppm [2] | inhibition at 20 ppm [3] | inhibition at 20 ppm [4] | pest or weed control at 200 ppm [5] | inhibition at 20 ppm [10] | inhibition at 20 ppm [7]

CCn1c(-n2ncnc2N)nc2cncc(-c3cccc(OC)c3OC)c21 [Compound 83, 2-[7-(2,3-dimethoxyphenyl)-1-ethylimidazo[4,5-c]pyridin-2-yl]-1,2,4-triazol-3-amine]
≥ 80%: pest or weed control at 200 ppm [8] | pest or weed control at 200 ppm [2] | inhibition at 20 ppm [3] | inhibition at 20 ppm [4] | pest or weed control at 200 ppm [5] | inhibition at 20 ppm [10] | inhibition at 20 ppm [7]

CCn1c(-n2ncnc2N)nc2cncc(-c3cc(C(F)(F)F)ccc3F)c21 [Compound 84, 2-[1-ethyl-7-[2-fluoro-5-(trifluoromethyl)phenyl]imidazo[4,5-c]pyridin-2-yl]-1,2,4-triazol-3-amine]
≥ 80%: pest or weed control at 200 ppm [2] | inhibition at 20 ppm [3] | inhibition at 20 ppm [4] | inhibition at 20 ppm [10] | inhibition at 20 ppm [6] | inhibition at 20 ppm [7]

CCn1c(-n2ncnc2N)nc2cncc(-c3cccc(Cl)c3Cl)c21 [Compound 87, 2-[7-(2,3-dichlorophenyl)-1-ethylimidazo[4,5-c]pyridin-2-yl]-1,2,4-triazol-3-amine]
≥ 80%: inhibition at 20 ppm [9] | pest or weed control at 200 ppm [2] | inhibition at 20 ppm [3] | inhibition at 20 ppm [4] | pest or weed control at 200 ppm [5] | inhibition at 20 ppm [10] | inhibition at 20 ppm [7]

CCCn1c(-n2ncnc2N)nc2cncc(-c3ccccc3F)c21 [Compound 121, 2-[7-(2-fluorophenyl)-1-propylimidazo[4,5-c]pyridin-2-yl]-1,2,4-triazol-3-amine]
≥ 80%: inhibition at 20 ppm [1] | pest or weed control at 200 ppm [8] | pest or weed control at 200 ppm [2] | inhibition at 20 ppm [3] | inhibition at 20 ppm [4] | pest or weed control at 200 ppm [5] | inhibition at 20 ppm [10] | inhibition at 20 ppm [7]

CCn1c(-n2ncnc2N)nc2cncc(/C(C)=N/OC/C=C/Cl)c21 [Compound 150]
≥ 80%: inhibition at 20 ppm [1] | inhibition at 20 ppm [9] | pest or weed control at 200 ppm [2] | inhibition at 20 ppm [3] | inhibition at 20 ppm [4] | pest or weed control at 200 ppm [5] | inhibition at 20 ppm [6] | inhibition at 20 ppm [7]

CCCn1c(-n2ncnc2N)nc2cncc(/C(C)=N/OC/C=C\Cl)c21 [Compound 181]
≥ 80%: inhibition at 20 ppm [9] | pest or weed control at 200 ppm [2] | inhibition at 20 ppm [3] | inhibition at 20 ppm [4] | pest or weed control at 200 ppm [5] | inhibition at 20 ppm [10] | inhibition at 20 ppm [6] | inhibition at 20 ppm [7]

CCCn1c(-n2ncnc2N)nc2cncc(/C(C)=N/OC/C=C/Cl)c21 [Compound 183]
≥ 80%: inhibition at 20 ppm [9] | pest or weed control at 200 ppm [2] | inhibition at 20 ppm [3] | inhibition at 20 ppm [4] | pest or weed control at 200 ppm [5] | inhibition at 20 ppm [10] | inhibition at 20 ppm [7]
